# Reference: patent publication US10201516B2 (The Regents of the University of California, priority 2014, dated 2019)
# Entries after “also recorded” stand apart in the source; their conditions may differ.
# Tests used:
# [1] = Toxicity by body weight changes in treated mice; type: in vivo, mouse; details: oral or i.p. prostratin (FIG. 13D)
# Experimental: (§1) The drug was daily administrated into either NOD-SCID or athymic nude mice by oral gavages (OG) at 1 mg/kg or intraperitoneal (I.P) injection at 0.5 mg/kg. 10% DMSO, 10% cremophor, and 80% saline solutions were used as the solvent and vehicle control.
# Rasless MEFs = experiment: Cell viability of rescued Rasless MEFs; type: cell-based, mouse
# Experimental: The dead cells were removed, and MTS assay (Promega, G5430) was performed for determining the percentage of viable cells, according to the manufacturer's instructions. DMSO was used as vehicle control and for normalization.
# [2] = system: K-Ras and CaM interaction; experiment: CaM pull-down assay of K-Ras/calmodulin interaction; type: cell-based; details: Ras^V12-transformed cells and multiple human pancreatic cancer cell lines (FIG. 5H)
# [3] = system: K-Ras^G12V-induced papillomas; experiment: K-Ras^G12V-induced papilloma in LRIG1cre/ER/LSL-Ras^G12V GEMM; type: in vivo, mouse
# Excerpt: We first used a papilloma model driven by H- or K-Ras^G12V under the control of a skin stem cell promoter, Lrig1 (FIG. 7C) (Jaks et al., Exp Cell Res 316:1422-1428, 2010; Page et al., Cell Stem Cell 13, 471-482, 2013). In this GEMM, tamoxifen inducible Cre recombinase initiates the expression of oncogenic H- or K-Ras^G12V, and the enforced oncogenic Ras expression disrupts the skin hemeostasis during wound healing and further induces papilloma formations (FIG. 7C).
# Lrig1 Cre/ER/LSL Hras and Lrig1 Cre/ER/LSL-Kras^G12D mice have been backcrossed into the FVB/N background over multiple generations to minimize the effects of genetic heterogeneity on tumor development. Cre recombinase was activated in both groups of mice by administering a single dose of 4oht (Tamoxifen), topically applied at 8 weeks of age. On day 7 thereafter, wounding was induced on their backs by cutting a 2 cm incision for papilloma development.
# [4] = system: PANC2.13 and PANC2.03 orthotopic tumors; experiment: Established orthotopic human pancreatic tumors, burden by human cfDNA in plasma; type: in vivo, mouse; details: treatment from 14th day post-implantation, over time (FIG. 7B)
# Experimental: as §1
# All blood samples were collected in K2EDTA containing tubes (BD Microtainer, Ref 365974) and centrifuged at 1,500 g for 10 min. Then the supernatants were carefully collected from the top portion of the plasma to eliminate the possibility of cell contaminations. The plasma was stored at −80° C. until further use. The cfDNA was extracted from 100 μL of plasma using NucleoSpin Plasma XS kit (Macherey-Nagel; 740900).
# Nucleic acid concentrations in all plasma samples were measured by quantitative polymerase chain reaction (PCR) using the AB7900HT (Applied Biosystems, Foster City, CA, USA) and TaqMan Universal PCR Master Mix (Applied Biosystems) according to the manufacturer's protocol. For quantification of human β-actin genomic DNA in mouse plasma samples, the following custom primers and probe sets were used: […]
# [5] = system: PANC2.13 and PANC1 orthotopic tumors; experiment: Prevention of orthotopic human pancreatic tumors in NOD-SCID mice; type: in vivo, mouse
# Experimental: as §1
# PANC1 and PANC2.13 = experiment: Prevention of subcutaneous human pancreatic xenograft tumors in nude mice; type: in vivo, mouse
# Experimental: as §1
# LEF1 = LEF1 mRNA expression in PANC1 and PANC2.13 (qPCR); type: cell-based; details: human pancreatic cancer cells (FIG. 13B)
# Experimental: (§2) Total RNAs were isolated and purified using QIAGEN RNAeasy kit. 1 μg RNA per specimen was reverse transcribed into cDNA using SuperScript™ First-Strand Synthesis System for RT-PCR (Invitrogen). Possible contamination of genomic DNA was excluded by treatments of DNase I. Quantitative real-time PCR array analysis was performed using SYBR Green (Applied Biosystem). Fold differences and statistical analysis were calculated using the GraphPad Prism 4.00 for Windows (GraphPad Software). The mouse Stem Cell Signaling RT^2Profiler PCR array on 96-well plate (PAMM-047Z) was purchased from SABiosciences.
# Fzd8 = Fzd8 mRNA expression in PANC1 and PANC2.13 (qPCR); type: cell-based; details: human pancreatic cancer cells (FIG. 13B)
# Experimental: as §2
# CaMKii = experiment: Western blot of phospho-CaMKii in Ras-transformed NIH/3T3 cells (and human pancreatic cancer cell lines); type: cell-based, mouse
# Experimental: Experimental cells were washed twice in ice-cold PBS and lysed in 1% Triton lysis buffer [25 mmol/L Tris pH 7.5, 150 mmol/L NaCl, 1% Triton X-100, 1 mmol/L EDTA, 1 mmol/L EGTA, 20 mmol/L NaF, 1 mmol/L […], and 1 mmol/L DTT] supplemented with a protease inhibitor cocktail (Roche) and cleared by centrifugation. Protein concentrations were determined by the Bio-Rad Protein Assay (Bio-Rad). Equal amounts of protein extracts were resolved using SDS-PAGE (NuPAGE; Invitrogen), transferred to a nitrocellulose membrane, and immunoblotted with primary antibodies indicated, followed by secondary antibodies labeled with either IRDye800 (Rockland) or Alexa Fluor 680 (Molecular Probes) and were visualized using a LI-COR Odyssey scanner. A complete list of primary antibodies is provided in the Extended Experimental Procedures.
# [6] = system: Ras^V12-transformed NIH/3T3 cells; experiment: Tumor initiation of Ras^V12-transformed NIH/3T3 cells in nude mice; type: in vivo, mouse
# Experimental: All experiments were approved by the IACUC of the University of California, San Francisco. Ras^V12-transformed NIH/3T3 cells were subcutaneously injected in female nude mice (Nu/Nu) at 50, 100 or 1,000 cells per flank. Palpable tumors were measured twice a week. The animals were divided into five mice per group. Pancreatic adenocarcinoma cells derived from Braf^CA and Kras^LSL-G12D mice are provided by Eric Collisson, and genotyped as described (Collison et al., Nat Med 17:500-503, 2011; Dankort et al., Genes Dev 21:379-384, 2007; Hingorani et al., Cancer Cell 4:[…], 2003). One hundred cells were orthotopically implanted in 6- to 8-week-old FVB/n mice in 20 μL 50% Matrigel using a 28.5-gauge needle. Mice were monitored for one month and were euthanized when distressed.
# as §1
# HIV-1 = details: cited from earlier work
# [7] = subcutaneous PANC2.13 (FIG. 6D)
smiles,measurement,setting,value
"CC(=O)O[C@@]12C[C@@H](C)[C@@]3(O)C(C=C(CO)C[C@]4(O)C(=O)C(C)=C[C@@H]34)[C@@H]1C2(C)C (stereo partly shown) [prostratin, 12-deoxyphorbol-13-acetate]",systemic toxicity (body weight changes),[1],no evidence of systemic toxicity; also recorded: no systematically toxic effects
same,cell viability response,Rasless MEFs; Rasless MEFs rescued with H-Ras^V12 (FIG. 13C),minimal responses
same,cell viability,Rasless MEFs; Rasless MEFs rescued with K-Ras(4B)^V12 (FIG. 13C),decreased cell viability
same,endogenous interaction between K-Ras and CaM,[2],abolished the endogenous interaction between K-Ras and CaM
same,"EMT markers (E-cadherin, vimentin) in K-Ras^G12V-driven skin tumors",[3]; FIG. 7E,maintained strong expression of epithelial maker
same,growth rate of K-Ras^G12V-induced papillomas,[3]; FIG. 14E,significantly slowed down the growth rate
same,formation of papillomas driven by K-Ras^G12V,[3]; daily treatment (FIG. 7D),significantly delayed/reduced the formation of papillomas
same,concentration of human specific cfDNA,[4],dramatically decreased
same,sizes of orthotopic tumors by BLI,[5]; FIG. 6E and FIG. 14B,dramatically reduced the sizes of orthotopic tumors
same,metastasis to the peritoneum,[5]; FIG. 6E and FIG. 14C,reduced metastasis to the peritoneum
same,formation of primary tumors in the pancreas (H&E staining),[5]; FIG. 6F and FIG. 14B,most of prostratin treated mice did not show formation of primary tumors in the pancreas
same,Ki67 in orthotopic tumors,[5]; FIG. 6G and FIG. 14B,much lower Ki67
same,tumor burden in the orthotopic sites,"[5]; NOD-SCID mice, daily oral treatment, vs control",lower tumor burden
same,tumor initiation and tumor size by bioluminescence imaging (BLI),PANC1 and PANC2.13; subcutaneous PANC2.13 (FIG. 6C),profoundly suppressed tumor initiation and tumor size
same,expression of Ki67,PANC1 and PANC2.13; [7],reduced expression of Ki67
same,tumor growth rate during therapy,PANC1 and PANC2.13; [7],dramatically reduced tumor growth rate
same,average size of established tumors,"PANC1 and PANC2.13; subcutaneous PANC2.13, vs control group (FIG. 6B)",much smaller
same,frequency of tumor formation,"PANC1 and PANC2.13; subcutaneous xenograft, oral prostratin from one day before implantation, vs vehicle (FIG. 6A)",significantly reduced the frequency of tumor formation
same,expression of β-catenin targeted gene LEF1,LEF1,"reduced the expressions of β-catenin targeted gene, LEF1"
same,expression of Fzd8,Fzd8,increased expression of Fzd8
same,activation of CaMKii,CaMKii; NIH/3T3 cells transformed by K-Ras^V12-S181A mutant or H-Ras^V12 (legend FIG. 5I),not K-Ras^V12-S181A mutant or H-Ras^V12
same,levels of phospho-CaMKii,CaMKii; Ras^V12-transformed cells and human pancreatic cancer cell lines (FIG. 5H-I),dramatically elevated levels of phospho-CaMKii
same,activity of CaMKii,CaMKii; cells transformed by H-Ras^V12 or K-Ras^V12-S181D (FIG. 5I),did not alter the activity of CaMKii
same,tumorigenicity of K-Ras^V12-transformed cells,"[6]; administered orally or intra-peritoneally, nude mice (FIG. 13D)",dramatically suppressed the tumorigenicity
same,size of subcutaneous tumor derived from K-Ras^V12-NIH/3T3 cells,[6]; vs vehicle control (FIG. 13D-E),much smaller
same,phosphor-CaMKii in tumor derived from K-Ras^V12-NIH/3T3 cells,[6]; vs vehicle control (FIG. 13E),greatly increased phosphor-CaMKii
same,CD4 receptor,HIV-1; literature,down-regulating the CD4 receptor
same,reactivation of latent HIV-1,HIV-1; memory CD4+ T cells that harbor latent proviruses,reactivates HIV-1
